Laboratory results from patent publication US20140243374A1, “Novel Sulfonamides” (The Brigham and Women's Hospital, Inc., priority 2011, published 2014).
pIC50: −log10 of the molar value. “And” between values parts separate entries of the source, which are not always exact repeats. Equal values may be shown once.

How the values were obtained:
[1] = molecular target: T1, γ-secretase (cleavage of APP, Aβ42) (Homo sapiens, UniProt P49768); assay: Aβ (1-42) cellular assay (Aβ ELISA, HEK AP-GL-T1 6 cells); assay type: cell-based; conditions: for inhibition at 1 µM: at 1 μM (concentration in brackets), read-out: Aβ42 % Inh; for pIC50: cellular Aβ42 ELISA, 24 h compound treatment
T1 construct: endogenous in cells; host or cells: HEK AP-GL-T16 luciferase reporter cells (tetracycline-induced APP substrate)
Protocol: Aβ (1-42) Cellular Assay.
The following assay was used to determine the extent to which the compounds of interest inhibit the cleavage of APP in vivo. AβELISA is a commercial fluorometric kit from Biosource (Invitrogen 89344). Luciferase reporter HEK AP-GL-T1 6 cells were plated at 50,000 cells/well in 96 well plates in DMEM media containing 10% tetracyclin free […], 250 μg/mL zeocin, 200 μg/mL hygromycin, and 5 μg/mL blasticidin. Compounds were added 24 h after plating and APP processing is induced simultaneously by addition of tetracycline. Following a 24 h compound treatment, […] of conditioned cell media is collected, mixed with ELISA diluent buffer containing 2 mM AEBSF and 12 mM o-phenanthroline, and immediately frozen at −80° C. For the ELISA, the samples were brought to room temperature and spun at 5000 rpm for 5 min. Samples ([…]) are incubated in the ELISA plate with […] detection antibody on a shaker at room temperature for 3 h. Wells were then washed 4 times with wash buffer and 100 mL of secondary antibody are added and incubated at room temperature for 30 min. Wells were again washed 4 times with wash buffer and 100 mL of fluorescent substrate solution are added. After 30 minutes of incubation, fluorescent signals are determine on a Gemini reader at ex 460 nm and em 560 nm. The amount of Aβ levels in each sample was determined from a standard curve generated by known concentrations of Aβ peptide run simultaneously with the samples.

[2] = molecular target: T2, γ-secretase (Notch cleavage activity) (Homo sapiens, UniProt P49768); assay: Cleaved Notch1 Sandwich ELISA (SUP-T1 cell line); assay type: cell-based; conditions: for pIC50: SUP-T1 cells, 16 h; for Notch Elisa/Aβ42: ratio Notch Elisa IC50 to Aβ42 IC50
T2 construct: endogenous in cells; host or cells: SUP-T1 cells
Protocol: Cleaved Notch1 Sandwich ELISA.
This assay was used to determine if the compounds of interest inhibit the Notch cleavage activity of γ-secretase in SUP-T1 cell line, which endogenously expresses a truncated Notch receptor fragment that is a viable gamma-secretase substrate. The base medium for this cell line is ATCC-formulated RPMI-1640 Medium with fetal bovine serum to a final concentration of 10%. Prepare dilution of SUP-T1 cells in complete growth medium to 1.0×10^6 cells/mL, seed 1.5 mL per well of each cell dilution into a 6-well plate. Collect cells treated with serial diluted compounds in DMSO after 16 h, then using equal amount of protein isolated from samples to measure Notch intracellular cleavage by PathScan® Sandwich ELISA Kit (Cell Signaling Tech 7194S).

[3] = molecular target: T3, γ-secretase (cleavage of Notch) (Homo sapiens, UniProt P49768); assay: Notch cellular assay (luciferase reporter U2OS cells); assay type: cell-based; conditions: for pIC50: U2OS luciferase reporter cells; for Notch Luc/Aβ42: ratio Notch luciferase IC50 to Aβ42 IC50
T3 construct: endogenous in cells; host or cells: U2OS luciferase reporter cells with Tet-on Notch
Protocol: This assay was used to determine if the compounds of interest inhibit the cleavage of Notch by γ-secretase in cells. A U2OS cell line in which the luciferase expression is adjusted by active Notch was used in this assay Notch expression is adjusted using Tet-on promoter. Luciferase reporter U2OS cells are plated at 1000 cells/well in 96 well plates in DMEM containing 100 μg/mL hygromycin, 15 μg/mL blasticidin and 1 μg/mL Tetracycline. Compounds were added 24 h after plating and the cells are lysed 6 days after adding compounds. Luciferase expression was performed using Steady-Glo Luciferase Assay System (Promega).

melting point	inhibition at 1 µM [1]	pIC50 [1]	Compound	other results
218 to 219 °C	6%		O=C(O)c1ccc(CN(C2CCOCC2)S(=O)(=O)c2ccc(Cl)cc2)cc1 [Example 1, 4-((4-Chloro-N-(tetrahydro-2H-pyran-4-yl)phenylsulfonamido)methyl)benzoic acid]	
218 to 220 °C	0%		O=C(O)c1ccc(CN(C2CCCCC2)S(=O)(=O)c2ccc(F)cc2)cc1 [Example 9, 4-((N-cyclohexyl-4-fluorophenylsulfonamido)methyl)benzoic acid]	
		9.15	COC[C@@H](C)NC(=O)c1ccc(CN(C2CCCCC2C)S(=O)(=O)c2ccc(Cl)cc2)cc1 (stereo partly drawn) [Example 14, 4-((4-Chloro-N-(2-methylcyclohexyl)phenylsulfonamido)methyl)-N-((R)-1-methoxypropan-2-yl)benzamide]	pIC50 [2]: 6.15; Notch Elisa/Aβ42 [2]: 1014; pIC50 [3]: 6.52; Notch Luc/Aβ42 ([3]; listed as 14/1136): 433
115 to 117 °C	94%		COC(=O)c1ccc(CN(CC2CCOCC2)S(=O)(=O)c2ccc(Cl)cc2)cc1 [Example 18, Methyl 4-((4-chloro-N-((tetrahydro-2H-pyran-4-yl)methyl)phenylsulfonamido)-methyl)benzoate]	
188 to 190 °C	13%		O=C(O)c1ccc(CN(CC2CCOCC2)S(=O)(=O)c2ccc(Cl)cc2)cc1 [Example 19, 4-((4-Chloro-N-((tetrahydro-2H-pyran-4-yl)methyl)phenylsulfonamido)methyl)-benzoic acid]	
81 to 83 °C	0%		CC[C@H](C1CCCC1)N(Cc1ccc(C(=O)OC)cc1)S(=O)(=O)c1ccc(Cl)cc1 [Example 22, (R)-Methyl 4-((4-chloro-N-(1-cyclopentylpropyl)phenylsulfonamido)methyl)benzoate]	
67 to 69 °C	0%		CC[C@H](C1CCCC1)N(Cc1ccc(C(=O)O)cc1)S(=O)(=O)c1ccc(Cl)cc1 [Example 23, (R)-4-((4-Chloro-N-(1-cyclopentylpropyl)phenylsulfonamido)methyl)benzoic acid]	
218 to 219 °C	51%		O=C(O)c1ccc(CN(C2CCCCC2O)S(=O)(=O)c2ccc(Cl)cc2)cc1 (centres unmarked) [Example 24, 4-((4-Chloro-N-(2-hydroxycyclohexyl)phenylsulfonamido)methyl)benzoic acid]	
162 to 164 °C		7.75	COC(=O)c1ccc(CN(C2CCCCC2O)S(=O)(=O)c2ccc(Cl)cc2)cc1 (centres unmarked) [Example 25, Methyl 4-((4-chloro-N-(2-hydroxycyclohexyl)phenylsulfonamido)methyl)benzoate]	
		9.16	COC[C@@H](C)NC(=O)c1ccc(CN(C2CCCCC2C)S(=O)(=O)c2ccc(Cl)cc2)cc1 (stereo partly drawn) [Example 46, 4-((4-Chloro-N-(2-methylcyclohexyl)phenylsulfonamido)methyl)-N-((R)-1-methoxypropan-2-yl)benzamide]	pIC50 [2]: 6.15; pIC50 [3]: 6.52; Notch Luc/Aβ42 ([3]; listed as 46/1221): 432
		9.06	CC1CCCCC1N(Cc1ccc(C(=O)NC[C@H](C)O)cc1)S(=O)(=O)c1ccc(Cl)cc1 (stereo partly drawn) [Example 47, 4-((4-Chloro-N-(2-methylcyclohexyl)phenylsulfonamido)methyl)-N—((S)-2-hydroxypropyl)benzamide]	pIC50 [2]: 6.46; Notch Elisa/Aβ42 [2]: 401; pIC50 [3]: 6.16; Notch Luc/Aβ42 [3]: 791
		9.15	CC(=O)CNC(=O)c1ccc(CN(C2CCCCC2C)S(=O)(=O)c2ccc(Cl)cc2)cc1 (centres unmarked) [Example 48, 4-((4-Chloro-N-(2-methylcyclohexyl)phenylsulfonamido)methyl)-N-(2-oxopropyl)benzamide]	pIC50 [2]: 6.66; Notch Elisa/Aβ42 [2]: 314; pIC50 [3]: 6.74; Notch Luc/Aβ42 [3]: 260
		8.14	CC1CCCC(N(Cc2ccc(C(=O)N[C@H](C)CO)cc2)S(=O)(=O)c2ccc(Cl)cc2)C1 (stereo partly drawn) [Example 50, 4-((4-Chloro-N-(3-methylcyclohexyl)phenylsulfonamido)methyl)-N—((R)-1-hydroxypropan-2-yl)benzamide]	pIC50 [2]: 5.67; Notch Elisa/Aβ42 [2]: 309; pIC50 [3]: 4.97; Notch Luc/Aβ42 [3]: 1456
		7.30 and 7.10 and 7.01	O=C(O)c1ccc(CN(C2CCCCC2F)S(=O)(=O)c2ccc(Cl)cc2)cc1 (centres unmarked) [Example 57, 4-((4-Chloro-N-(2-fluorocyclohexyl)phenylsulfonamido)methyl)benzoic acid]	pIC50 [2]: 5.97; Notch Elisa/Aβ42 ([2]; listed as 57/1231): 14; pIC50 [3]: 4.54; Notch Luc/Aβ42 ([3]; listed as 57/1231): 376

The remaining lines, values behind:

Compound	melting point	inhibition at 1 µM [1]	pIC50 [1]	other results
COc1ccc(CN(C2CCOCC2)S(=O)(=O)c2ccc(Cl)cc2)cc1C(=O)O [Example 8, 5-((4-Chloro-N-(tetrahydro-2H-pyran-4-yl)phenylsulfonamido)methyl)-2-methoxy-benzoic acid]	174 to 176 °C	0%		
CSc1ccc(CN(C2CCOCC2)S(=O)(=O)c2ccc(Cl)cc2)cc1 [Example 10, 4-Chloro-N-(4-(methylthio)benzyl)-N-(tetrahydro-2H-pyran-4-yl)benzene-sulfonamide]	124 to 127 °C	0%		
CS(=O)(=O)c1ccc(CN(C2CCOCC2)S(=O)(=O)c2ccc(Cl)cc2)cc1 [Example 11, 4-Chloro-N-(4-(methylsulfonyl)benzyl)-N-(tetrahydro-2H-pyran-4-yl)benzene-sulfonamide]	158 to 160 °C	0%		
O=S(=O)(c1ccc(Cl)cc1)N(Cc1ccc(OC2CCOCC2)nc1)C1CCOCC1 [Example 13, 4-Chloro-N-(tetrahydro-2H-pyran-4-yl)-N-((6-(tetrahydro-2H-pyran-4-yloxy)-pyridin-3-yl)methyl)benzenesulfonamide]	123 to 125 °C	0%		
COC(=O)c1cc(CN(CC2CCOCC2)S(=O)(=O)c2ccc(Cl)cc2)ccc1OC [Example 16, Methyl 5-((4-chloro-N-((tetrahydro-2H-pyran-4-yl)methyl)phenylsulfonamido)-methyl)-2-methoxybenzoate]	118 to 119 °C	0%		
COc1ccc(CN(CC2CCOCC2)S(=O)(=O)c2ccc(Cl)cc2)cc1C(=O)O [Example 17, 5-((4-Chloro-N-((tetrahydro-2H-pyran-4-yl)methyl)phenylsulfonamido)methyl)-2-methoxybenzoic acid]	158 to 159 °C	14%		
N#Cc1ccc(CN(C2CCC2)S(=O)(=O)c2ccc(Cl)cc2)c(F)c1 [Example 26, 4-Chloro-N-(4-cyano-2-fluorobenzyl)-N-cyclobutylbenzenesulfonamide]	125 to 127 °C	54%		
Cc1ccc(S(=O)(=O)N(Cc2ccc(C#N)cc2F)C2CCC2)cc1 [Example 27, N-(4-Cyano-2-fluorobenzyl)-N-cyclobutyl-4-methylbenzenesulfonamide]	146 to 147 °C	37%		
N#Cc1ccc(CN(C2CCCC2)S(=O)(=O)c2ccc(Cl)cc2)c(F)c1 [Example 28, 4-Chloro-N-(4-cyano-2-fluorobenzyl)-N-cyclopentylbenzenesulfonamide]	176 to 177 °C		6.52	
Cc1ccc(S(=O)(=O)N(Cc2ccc(C#N)cc2F)C2CCCC2)cc1 [Example 29, N-(4-Cyano-2-fluorobenzyl)-N-cyclopentyl-4-methylbenzenesulfonamide]	178 to 179 °C	0%		
